{"source": "paper PMC7511286", "about": "(European Journal of Drug Metabolism and Pharmacokinetics, 2020)", "origin": "cited, not measured here", "key": {"[1]": {"test_system": "human mitochondrial enzyme dihydroorotate dehydrogenase (DHODH)", "settings": "cited from earlier work"}, "[2]": {"settings": "free acid, multiple-dose phase 1 study; cited from earlier work"}, "[3]": {"settings": "hepatocytes across different species; ref data on file; cited from earlier work"}, "[4]": {"test_system": "CYP2C8", "settings": "human liver microsomes, recombinant enzymes; ref data on file; cited from earlier work"}, "[5]": {"test_system": "stimulated immune cells", "settings": "cited from earlier work"}, "[6]": {"test_system": "CYP2C9", "settings": "human liver microsomes, recombinant enzymes; ref data on file; cited from earlier work"}}}
{"smiles": "COc1cccc(-c2ccc(NC(=O)C3=C(C(=O)O)CCC3)c(F)c2)c1", "note": "[vidofludimus]", "values": [{"measurement": "inhibition of DHODH", "setting": "[1]", "result": "potent and selective inhibitor"}, {"measurement": "daily dose at which cases of hematuria occurred", "setting": "[2]", "result": 70, "unit": "mg"}, {"measurement": "number of metabolites identified", "setting": "[3]", "result": "eight"}, {"measurement": "contribution of CYP isoform to metabolism", "setting": "[4]", "result": "predominant hepatic CYP isoform"}, {"measurement": "inhibition of IL-17 and IFN-γ release", "setting": "[5]", "result": "very potent inhibitor"}, {"measurement": "contribution of CYP isoform to metabolism", "setting": "[6]", "result": "smaller contributions"}]}
